From patent US8969524B2, “FVIII peptides for immune tolerance induction and immunodiagnostics” (Baxter International Inc., priority 2010, dated 2015)

What follows are sequences tested on FVIII-specific T cell hybridomas (peptides presented by HLA-DRB1*1501) (assay: Peptide specificity of FVIII-specific T cell hybridomas (IL-2 release)). Settings: during Factor VIII replacement therapy or connected with acquired hemophilia.
Type: cell-based, mouse
Text: To better mimic the human MHC class II molecule for identifying FVIII peptides, a mouse model was developed for hemophilia A with a chimeric MHC class II molecule carrying a human HLA-DRB1*1501 specific binding site. This mouse was backcrossed to a mouse carrying a complete knock out of all murine MHC class II genes (Reipert et al., J. Thromb. Haemost. 7 Suppl. 1:92-97 (2009)). In this new transgenic mouse model, all CD4^+ T cell responses are driven by the human MHC class II molecule. This mouse model was used to identify FVIII peptides presented by HLA-DRB1*1501 that drive anti-FVIII immune responses in these mice.
Hemophilic HLA-DRB15 E17 mice: HLA-DRB1*1501^+/− E17^−/− mice as described in Reipert et al., J. Thromb. Haemost. 7 Suppl. 1:92-97 (2009). Mice were all male and aged 8 to 12 weeks at the beginning of the experiment.
Immunization with human recombinant FVIII: HLA-DRB1*1501^+/− E17^−/− mice received between 4 and 8 intravenous or subcutaneous doses of 0.2 μg or 1 μg human rFVIII at weekly intervals. rFVIII was diluted in the original formulation buffer or Dulbecco phosphate buffered saline containing calcium and magnesium (DPBS; Sigma Aldrich, St. Louis, Mo., USA).
Cell preparation: Spleens were obtained 3 to 7 days after the last immunization with rFVIII. Spleen cells were minced and passed through a 70 μm cell strainer (Becton Dickinson, Franklin Lakes, N.J.). Single cells were collected in culture medium: RPMI 1640 medium (Gibco, Invitrogen, Life Technologies, Carlsbad, Calif.) supplemented with 10% preselected fetal calf serum (FCS; Hyclone, Logan, Utah), 2 mM L-glutamine, 100 U/mL penicillin/streptomycin (both from Gibco), and 5×10^−5 M mercaptoethanol (Sigma-Aldrich). Erythrocytes were lysed using hypotonic buffer (pH 7.2) composed of 0.15 M ammonium chloride, 10 mM potassium bicarbonate (both from Merck, Darmstadt, Germany) and 0.1 mM ethylene-diaminetetraacetic acid (Sigma-Aldrich). Cells were washed and counted using a Coulter Counter Z1. […]

Sequence | involvement in the immune response mounted against FVIII protein
TVVITLKNMASHPVSLHAVGV (listed as Homo sapiens) [FVIII^102-122] | involved in the immune response
AWPKMHTVNGYVNRSLPGLIG (listed as Homo sapiens) [FVIII^246-266] | involved in the immune response
QANRSPLPIAKVSSFPSIRPIYLT (listed as Homo sapiens) [FVIII^1401-1424] | involved in the immune response
